The values that follow come from article PMC9378504 (Journal of medicinal chemistry, 2022).

The target of assay [1] is T1, IKZF1 (Homo sapiens, UniProt Q13422+Q96SW2). The assay can be described thus: Western blotting of IKZF1 protein level in KMS11 cells. The format is cell-based. The note with it: 2.5 μM, 72 h. On the technique in general: In western blotting, separated proteins are transferred to a membrane and probed.
The target in assay [2] is T1, IKZF1. Nature of the assay: Western blotting of IKZF1 protein level in H929 cells. The note with it: 2.5 μM, 72 h. The format is cell-based.
Assay [3] addresses T2, IKZF3 (Homo sapiens, UniProt Q96SW2+Q9UKT9). The assay can be described thus: Western blotting of IKZF3 protein level in KMS11 cells. The format is cell-based. The conditions noted are these: 2.5 μM, 72 h.
Assay [4] has as its target T2, IKZF3. Nature of the assay: Western blotting of IKZF3 protein level in H929 cells. The format is cell-based. The conditions noted are these: 2.5 μM, 72 h.
For the next assay, the system named is KMS11 cells. The assay can be described thus: Cell growth inhibition assay in KMS11 cells. The format is cell-based, Human. The conditions noted are these: 2.5 μM, 8 days.
The target of assay [5] is T3, NSD2 (Homo sapiens, UniProt O96028).
T3 sequence (O96028 1-1365): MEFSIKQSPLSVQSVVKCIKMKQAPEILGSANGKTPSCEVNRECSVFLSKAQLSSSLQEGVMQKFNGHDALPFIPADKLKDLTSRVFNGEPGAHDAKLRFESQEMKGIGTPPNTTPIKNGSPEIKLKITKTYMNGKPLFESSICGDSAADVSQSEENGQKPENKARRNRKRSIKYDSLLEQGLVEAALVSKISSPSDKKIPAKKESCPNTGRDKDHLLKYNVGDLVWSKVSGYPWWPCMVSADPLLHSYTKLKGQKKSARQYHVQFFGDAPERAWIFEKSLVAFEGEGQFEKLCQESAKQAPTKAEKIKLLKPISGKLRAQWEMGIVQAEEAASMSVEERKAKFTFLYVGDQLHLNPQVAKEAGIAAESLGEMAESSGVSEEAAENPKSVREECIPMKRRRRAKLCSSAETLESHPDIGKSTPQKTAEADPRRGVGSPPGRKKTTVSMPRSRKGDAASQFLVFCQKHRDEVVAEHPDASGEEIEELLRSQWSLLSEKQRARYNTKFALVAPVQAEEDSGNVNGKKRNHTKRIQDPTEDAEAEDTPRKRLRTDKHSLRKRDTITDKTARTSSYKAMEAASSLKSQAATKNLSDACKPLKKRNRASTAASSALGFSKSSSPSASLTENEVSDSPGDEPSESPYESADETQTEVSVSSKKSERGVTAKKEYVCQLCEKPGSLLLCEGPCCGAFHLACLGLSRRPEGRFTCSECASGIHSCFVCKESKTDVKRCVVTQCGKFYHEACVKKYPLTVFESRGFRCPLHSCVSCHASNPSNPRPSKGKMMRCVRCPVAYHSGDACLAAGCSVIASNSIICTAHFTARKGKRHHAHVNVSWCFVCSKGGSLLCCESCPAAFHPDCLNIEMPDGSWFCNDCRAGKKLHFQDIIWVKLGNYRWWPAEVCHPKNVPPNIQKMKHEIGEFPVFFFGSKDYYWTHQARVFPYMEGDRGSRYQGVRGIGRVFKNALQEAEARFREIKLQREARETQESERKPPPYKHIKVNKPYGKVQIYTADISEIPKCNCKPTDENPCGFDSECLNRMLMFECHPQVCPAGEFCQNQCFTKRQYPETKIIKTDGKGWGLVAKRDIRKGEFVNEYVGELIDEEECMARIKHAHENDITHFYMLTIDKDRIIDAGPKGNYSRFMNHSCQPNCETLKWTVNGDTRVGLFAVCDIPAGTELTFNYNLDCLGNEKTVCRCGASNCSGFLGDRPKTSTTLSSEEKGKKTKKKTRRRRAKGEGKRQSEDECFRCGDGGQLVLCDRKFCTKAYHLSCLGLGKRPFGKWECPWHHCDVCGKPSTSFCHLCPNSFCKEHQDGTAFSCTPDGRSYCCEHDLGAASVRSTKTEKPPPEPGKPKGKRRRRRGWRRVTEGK
The assay can be described thus: Western blotting of NSD2 protein level in H929 cells. The format is cell-based.

Another assay has as its system H929 cells. Nature of the assay: Cell growth inhibition assay in H929 cells. The format is cell-based, Human. The note with it: 2.5 μM, 8 days.
The test system of assay [6] is GSPT1. Nature of the assay: Western blotting of GSPT1 protein level in KMS11 cells. The format is cell-based, Human. The note with it: 2.5 μM, 72 h.
In assay [7] the target is T3, NSD2. Nature of the assay: Western blotting of NSD2 protein level in KMS11 cells. The format is cell-based.
Assay [8] has as its system GSPT1. Nature of the assay: Western blotting of GSPT1 protein level in H929 cells. The format is cell-based, Human. The note with it: 2.5 μM, 72 h.
The target of a further assay is T4, NSD2-PWWP1 domain (Homo sapiens, UniProt O96028).
T4 sequence (O96028 208-369): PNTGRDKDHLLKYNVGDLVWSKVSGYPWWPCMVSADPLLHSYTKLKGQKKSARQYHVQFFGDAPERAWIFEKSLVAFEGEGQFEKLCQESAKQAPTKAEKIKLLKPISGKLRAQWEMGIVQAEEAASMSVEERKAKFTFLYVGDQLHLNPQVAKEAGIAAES
Nature of the assay: Isothermal titration calorimetry. The conditions noted are these: ITC, inverse titration, 50 mM Tris-HCl pH 6.8, 25 °C; mean ± SD from two independent experiments. (ITC needs no label: the signal is the heat of the interaction.)

Assay [9] has as its target T2, IKZF3. The assay can be described thus: Western blotting of IKZF3 protein level in 293FT cells. The format is cell-based. The note with it: 293FT cells, SI Figure S1A.
Assay [10] concerns the target T3, NSD2. The assay can be described thus: Western blotting of NSD2 protein level in 293FT cells. The format is cell-based. The conditions noted are these: 293FT cells; for NSD2 degradation: SI Figure S1A.
Assay [11] concerns GSPT1. The assay can be described thus: Western blotting of GSPT1 protein level in 293FT cells. The format is cell-based. The note with it: SI Figure S1A.

T2 sequence (Q9UKT9 whole entry): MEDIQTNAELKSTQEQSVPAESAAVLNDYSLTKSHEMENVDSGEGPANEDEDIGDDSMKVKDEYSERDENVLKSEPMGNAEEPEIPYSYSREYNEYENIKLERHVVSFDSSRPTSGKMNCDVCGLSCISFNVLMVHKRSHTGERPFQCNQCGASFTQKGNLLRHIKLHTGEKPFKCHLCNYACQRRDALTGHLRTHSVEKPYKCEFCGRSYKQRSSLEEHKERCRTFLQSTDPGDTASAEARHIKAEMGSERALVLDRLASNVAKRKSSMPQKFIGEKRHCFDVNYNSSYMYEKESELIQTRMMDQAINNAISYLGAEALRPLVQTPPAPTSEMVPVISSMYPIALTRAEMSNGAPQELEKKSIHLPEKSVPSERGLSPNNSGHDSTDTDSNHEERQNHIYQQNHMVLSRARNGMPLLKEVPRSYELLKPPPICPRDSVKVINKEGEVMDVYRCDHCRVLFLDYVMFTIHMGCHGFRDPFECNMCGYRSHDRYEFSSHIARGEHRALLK
T2 sequence (Q96SW2 whole entry): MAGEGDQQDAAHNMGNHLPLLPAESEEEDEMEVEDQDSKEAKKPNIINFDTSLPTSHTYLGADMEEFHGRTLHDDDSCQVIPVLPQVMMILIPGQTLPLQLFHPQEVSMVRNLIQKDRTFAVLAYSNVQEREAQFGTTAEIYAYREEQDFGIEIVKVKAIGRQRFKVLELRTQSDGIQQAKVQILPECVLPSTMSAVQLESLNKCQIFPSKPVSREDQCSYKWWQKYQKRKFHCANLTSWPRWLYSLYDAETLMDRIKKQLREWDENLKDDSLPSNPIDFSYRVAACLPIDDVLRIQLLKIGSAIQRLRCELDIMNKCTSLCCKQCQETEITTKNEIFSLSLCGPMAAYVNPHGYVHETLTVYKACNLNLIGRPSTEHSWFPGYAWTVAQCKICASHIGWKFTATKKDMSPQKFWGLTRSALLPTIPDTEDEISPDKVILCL
T2 sequence (Q16531 whole entry partner): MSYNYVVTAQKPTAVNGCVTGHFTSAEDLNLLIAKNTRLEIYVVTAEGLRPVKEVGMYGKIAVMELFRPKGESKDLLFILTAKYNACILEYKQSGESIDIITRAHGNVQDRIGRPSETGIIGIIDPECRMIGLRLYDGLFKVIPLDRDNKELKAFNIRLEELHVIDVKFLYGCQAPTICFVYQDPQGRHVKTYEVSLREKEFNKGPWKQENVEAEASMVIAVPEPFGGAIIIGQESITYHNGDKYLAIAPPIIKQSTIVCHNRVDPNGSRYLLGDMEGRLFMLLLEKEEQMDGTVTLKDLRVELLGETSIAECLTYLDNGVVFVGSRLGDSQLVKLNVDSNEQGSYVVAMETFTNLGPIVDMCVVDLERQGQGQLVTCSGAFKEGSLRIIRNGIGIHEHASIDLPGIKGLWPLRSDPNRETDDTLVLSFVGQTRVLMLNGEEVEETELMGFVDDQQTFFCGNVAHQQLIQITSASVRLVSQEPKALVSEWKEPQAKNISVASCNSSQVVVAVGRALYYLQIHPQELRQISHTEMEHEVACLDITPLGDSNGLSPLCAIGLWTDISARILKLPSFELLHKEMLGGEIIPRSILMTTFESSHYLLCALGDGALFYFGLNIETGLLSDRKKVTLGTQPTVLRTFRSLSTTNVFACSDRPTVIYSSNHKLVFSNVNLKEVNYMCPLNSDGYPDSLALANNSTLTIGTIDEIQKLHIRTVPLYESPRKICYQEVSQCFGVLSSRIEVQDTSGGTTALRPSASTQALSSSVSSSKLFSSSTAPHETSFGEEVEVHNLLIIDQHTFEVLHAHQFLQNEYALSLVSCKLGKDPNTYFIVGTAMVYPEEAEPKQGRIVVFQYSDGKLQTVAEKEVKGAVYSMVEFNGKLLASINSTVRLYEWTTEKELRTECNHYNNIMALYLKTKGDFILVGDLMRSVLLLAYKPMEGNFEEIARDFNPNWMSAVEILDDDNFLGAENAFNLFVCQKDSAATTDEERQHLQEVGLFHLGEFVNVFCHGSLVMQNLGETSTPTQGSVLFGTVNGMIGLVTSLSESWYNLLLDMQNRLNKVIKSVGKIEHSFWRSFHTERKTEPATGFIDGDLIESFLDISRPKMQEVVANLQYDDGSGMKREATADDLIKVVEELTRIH
T1 sequence (Q13422 whole entry): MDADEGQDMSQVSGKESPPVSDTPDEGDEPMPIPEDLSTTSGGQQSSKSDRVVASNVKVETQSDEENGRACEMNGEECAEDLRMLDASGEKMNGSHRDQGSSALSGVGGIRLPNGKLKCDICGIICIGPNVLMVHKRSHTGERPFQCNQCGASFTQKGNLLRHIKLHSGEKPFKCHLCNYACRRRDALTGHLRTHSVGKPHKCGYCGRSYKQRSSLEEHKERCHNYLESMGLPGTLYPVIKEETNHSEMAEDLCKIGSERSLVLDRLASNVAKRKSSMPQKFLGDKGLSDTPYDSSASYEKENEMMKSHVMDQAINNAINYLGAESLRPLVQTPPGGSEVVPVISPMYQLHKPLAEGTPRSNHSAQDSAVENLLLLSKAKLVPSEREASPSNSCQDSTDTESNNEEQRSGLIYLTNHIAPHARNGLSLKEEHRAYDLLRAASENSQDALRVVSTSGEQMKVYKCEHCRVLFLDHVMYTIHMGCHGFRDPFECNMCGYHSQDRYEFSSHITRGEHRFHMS
T1 sequence (Q96SW2 whole entry): as the sequence (Q96SW2 whole entry) above
T1 sequence (Q16531 whole entry partner): as the sequence (Q16531 whole entry partner) above

Consider `O=C1COc2cc(C(=O)N(Cc3ccc(C(=O)Nc4ccncn4)cc3)C3CC3)ccc2N1` [UNC6934, reference compound], for which the IKZF1 protein level entry on IKZF1 [1] and at IKZF1 [2] was “did not display any degradation effect” in each case. Further, the IKZF3 protein level entry on IKZF3 [3] and on IKZF3 [4] was “did not display any degradation effect” throughout.

As for `CC(C)N(Cc1ccc(C(=O)Nc2ccc(OCCCNC(=O)CNc3cccc4c3C(=O)N(C3CCC(=O)NC3=O)C4=O)cn2)cc1)C(=O)c1ccc2c(c1)OCC(=O)N2` (stereo not shown) [Compound 18, N-(4-((5-(3-(2-((2-(2,6-Dioxopiperidin-3-yl)-1,3-dioxoisoindolin-4-yl)amino)acetamido)propoxy)pyridin-2-yl)carbamoyl)benzyl)-N-isopropyl-3-oxo-3,4-dihydro-2H-benzo[b][1,4]oxazine-7-carboxamide], the IKZF1 protein level result at IKZF1 [1] and on IKZF1 [2] was “clearly reduced the IKZF1 protein level” each time. The Cell growth inhibition entry in the assay with KMS11 cells and with H929 cells was “displayed some growth inhibition” each time. The NSD2 degradation result is reported as “did not induce obvious NSD2 degradation” at NSD2 [5] (2.5 μM, 72 h) and “did not induce obvious NSD2 degradation” at NSD2 [7] (2.5 μM, 72 h). Besides, the GSPT1 degradation entry in the assay with GSPT1 [6] and with GSPT1 [8] was “did not degrade GSPT1” throughout. Also, the Kd entry on NSD2-PWWP1 domain was “did not show any appreciable binding”.

Consider `CN1C(=O)CCC(N2C(=O)c3cccc(NCC(=O)NCCCOc4ccc(NC(=O)c5ccc(CN(C(=O)c6ccc7c(c6)OCC(=O)N7)C6CC6)cc5)nc4)c3C2=O)C1=O` (stereo not shown) [Compound 17, N-Cydopropyl-N-(4-((5-(3-(2-((2-(1-methyl-2,6-dioxopiperidin-3-yl)-1,3-dioxoisoindolin-4-yl)amino)acetamido)propoxy)pyridin-2-yl)carbamoyl)benzyl)-3-oxo-3,4-dihydro-2H-benzo[b][1,4]oxazine-7-carboxamide], for which the IKZF1 protein level entry at IKZF1 [1] and on IKZF1 [2] was “did not display any degradation effect” in each case. In addition, the Cell growth inhibition entry in the assay on KMS11 cells and with H929 cells was “showed little effect on cell growth inhibition” each time. Besides, the NSD2 degradation entry is listed as “did not induce obvious NSD2 degradation” on NSD2 [5] (2.5 μM, 72 h) and “did not induce obvious NSD2 degradation” on NSD2 [7] (2.5 μM, 72 h). The GSPT1 degradation result in the assay on GSPT1 [6] and in the assay with GSPT1 [8] was “did not degrade GSPT1” throughout. For the same compound, the IKZF3 protein level entry on IKZF3 [3] and at IKZF3 [4] was “did not display any degradation effect” each time.

`Cc1ncsc1-c1ccc(CNC(=O)[C@@H]2C[C@@H](O)CN2C(=O)[C@@H](NC(=O)CCOCCOCCNC(=O)c2ccc(NC(=O)c3ccc(CN(C(=O)c4ccc5c(c4)OCC(=O)N5)C4CC4)cc3)cc2)C(C)(C)C)cc1` [Compound 1, N-Cyclopropyl-N-(4-((4-((2-(2-(3-(((S)-1-((2S,4R)-4-hydroxy-2-((4-(4-methylthiazol-5-yl)benzyl)carbamoyl)pyrrolidin-1-yl)-3,3-dimethyl-1-oxobutan-2-yl)amino)-3-oxopropoxy)ethoxy)ethyl)-carbamoyl)phenyl)carbamoyl)benzyl)-3-oxo-3,4-dihydro-2H-benzo[b][1,4]oxazine-7-carboxamide]: the IKZF3 degradation entry at IKZF3 [9] is on record as “did not degrade GSPT1 or IKZF3”. The NSD2 degradation result on NSD2 [5] (SI Figure S1B) is on record as “ineffective in degrading NSD2”; on NSD2 [10] (2.5 μM) it was “confirmed the NSD2 degradation effect”; on NSD2 [10] (10 μM), “hook affect”; on NSD2 [10] (0.1 and 0.5 μM), “did not induce NSD2 degradation”; on NSD2 [7] (SI Figure S1B) it was “ineffective in degrading NSD2”. Further, on NSD2 [10] (2.5 and 10 μM, 48 h, Figure 2), the NSD2 protein level entry was “clearly reduced the NSD2 protein level with a slight hook effect at 10μM”. In addition, the GSPT1 degradation result with GSPT1 [11] is listed as “did not degrade GSPT1 or IKZF3”.
